In patent US20170008888A1 (KYORIN PHARMACEUTICAL CO., LTD., priority 2014, published 2017):
Where two headings read alike, the source gives them in different places.

Assays:
Assay type in all cases: binding
[1] = molecular target: T1, ERK5 (Homo sapiens, UniProt Q13164); assay: Probe-based (AX9989 acyl phosphate ATP probe) kinase profiling in Jurkat lysate: ERK5; details: for IC50: Jurkat lysate
T1 construct: screened for activity against several kinases in Jurkat cells; endogenous in cells; host or cells: Jurkat cell lysate
T1 sequence (Q13164 whole entry): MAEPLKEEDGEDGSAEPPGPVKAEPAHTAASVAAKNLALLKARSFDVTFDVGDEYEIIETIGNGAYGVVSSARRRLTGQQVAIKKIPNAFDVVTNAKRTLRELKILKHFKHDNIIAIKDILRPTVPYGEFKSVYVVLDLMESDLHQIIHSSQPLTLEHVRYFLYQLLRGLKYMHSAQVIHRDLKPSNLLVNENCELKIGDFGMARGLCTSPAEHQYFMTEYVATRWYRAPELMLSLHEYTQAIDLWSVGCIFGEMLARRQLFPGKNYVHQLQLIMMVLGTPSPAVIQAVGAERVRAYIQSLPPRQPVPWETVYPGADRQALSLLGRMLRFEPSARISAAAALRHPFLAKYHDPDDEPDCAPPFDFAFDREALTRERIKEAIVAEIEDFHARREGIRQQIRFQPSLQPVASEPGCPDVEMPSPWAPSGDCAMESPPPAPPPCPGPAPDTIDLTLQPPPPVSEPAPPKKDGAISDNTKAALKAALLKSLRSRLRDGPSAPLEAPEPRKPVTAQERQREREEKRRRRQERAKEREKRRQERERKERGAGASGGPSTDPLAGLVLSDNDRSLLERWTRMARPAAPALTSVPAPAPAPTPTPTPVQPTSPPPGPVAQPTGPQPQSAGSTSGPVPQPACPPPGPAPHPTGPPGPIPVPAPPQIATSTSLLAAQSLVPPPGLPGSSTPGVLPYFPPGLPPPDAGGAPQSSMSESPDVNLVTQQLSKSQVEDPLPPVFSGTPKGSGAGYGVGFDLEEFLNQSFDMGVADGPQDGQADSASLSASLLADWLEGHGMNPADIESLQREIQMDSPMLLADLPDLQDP
Description: (§1) In this example, potency of the compounds as ERK5 inhibitors was assessed, and the compounds were screened for activity against several kinases in Jurkat cells.
(§2) Jurkat cell pellets were resuspended in four volumes of lysis buffer (50 mM HEPES pH 7.5, 150 mM NaCl, 0.1% Triton-X-100, 1% v/v phosphatase, inhibitor cocktail II [EMD/Calbiochem, #524625]), sonicated using a tip, sonicator, and Dounce homogenized. Lysate was cleared by centrifugation, at 16,000 g for 15 min., was gel filtered (BioRad 10DG) and MnCl2 was then added to a final concentration of 20 mM before treatment with the test compound and probe labeling. […] All compound treatments were performed at room temperature.
(§3) Acyl phosphate ATP probe (AX9989) labeling reactions were performed at room temperature with a final probe concentration of 5 μM after a 15 min pre-incubation of lysate with a test compound. All reactions were performed in duplicate, using 445 μl/sample at 5 mg/ml. Probe-labeled lysates were denatured and reduced (6 M urea, 10 mM DTT, 65° C., 15 min), alkylated (40 mM iodoacetamide, 37° C., 30 min, and gel filtered (Sephadex G25) into 10 mM ammonium bicarbonate, 2 M urea, 5 mM methionine. The desalted protein mixture was digested with trypsin (0.015 mg/ml) for 1 hr at 37° C., and desthiobiotinylated peptides were captured using a […] high-capacity streptavidin resin (Thermo Scientific). Captured peptides were then washed extensively using 150 μl/wash with three different wash buffers: (A) 3 times with 1% triton, 0.5% tergitol, 1 mM EDTA in PBS; (B) 18 times with PBS; and (C) 8 times with HPLC grade water. Peptides were eluted from the streptavidin beads using two 35-μL washes of a 50% CH3CN/water mixture containing 0.1% TFA at room temperature.
(§4) Kinase active site peptides were identified and quantified using LC/MS. Percent inhibition was calculated as the normalized decrease in the ESI-MS fragment intensities of probe-labeled peptides in samples incubated with the test compound compared to those without.
ERK5 IC50 values were calculated from the percent inhibition and the screening concentration.

[2] = test system: AMPKa1 or AMPKa2; assay: Probe-based (AX9989) kinase profiling in Jurkat lysate: AMPKa1 or AMPKa2; details: for Kinase inhibition % at indicated screening concentration: AMPKa1 or AMPKa2: screening concentration 1.0 μM
Description: as §1, §2, §3, §4

[3] = molecular target: T2, ACK (Homo sapiens, UniProt Q07912); assay: Probe-based (AX9989) kinase profiling in Jurkat lysate: ACK
T2 construct: screened for activity against several kinases in Jurkat cells; endogenous in cells; host or cells: Jurkat cell lysate
T2 sequence (Q07912 whole entry): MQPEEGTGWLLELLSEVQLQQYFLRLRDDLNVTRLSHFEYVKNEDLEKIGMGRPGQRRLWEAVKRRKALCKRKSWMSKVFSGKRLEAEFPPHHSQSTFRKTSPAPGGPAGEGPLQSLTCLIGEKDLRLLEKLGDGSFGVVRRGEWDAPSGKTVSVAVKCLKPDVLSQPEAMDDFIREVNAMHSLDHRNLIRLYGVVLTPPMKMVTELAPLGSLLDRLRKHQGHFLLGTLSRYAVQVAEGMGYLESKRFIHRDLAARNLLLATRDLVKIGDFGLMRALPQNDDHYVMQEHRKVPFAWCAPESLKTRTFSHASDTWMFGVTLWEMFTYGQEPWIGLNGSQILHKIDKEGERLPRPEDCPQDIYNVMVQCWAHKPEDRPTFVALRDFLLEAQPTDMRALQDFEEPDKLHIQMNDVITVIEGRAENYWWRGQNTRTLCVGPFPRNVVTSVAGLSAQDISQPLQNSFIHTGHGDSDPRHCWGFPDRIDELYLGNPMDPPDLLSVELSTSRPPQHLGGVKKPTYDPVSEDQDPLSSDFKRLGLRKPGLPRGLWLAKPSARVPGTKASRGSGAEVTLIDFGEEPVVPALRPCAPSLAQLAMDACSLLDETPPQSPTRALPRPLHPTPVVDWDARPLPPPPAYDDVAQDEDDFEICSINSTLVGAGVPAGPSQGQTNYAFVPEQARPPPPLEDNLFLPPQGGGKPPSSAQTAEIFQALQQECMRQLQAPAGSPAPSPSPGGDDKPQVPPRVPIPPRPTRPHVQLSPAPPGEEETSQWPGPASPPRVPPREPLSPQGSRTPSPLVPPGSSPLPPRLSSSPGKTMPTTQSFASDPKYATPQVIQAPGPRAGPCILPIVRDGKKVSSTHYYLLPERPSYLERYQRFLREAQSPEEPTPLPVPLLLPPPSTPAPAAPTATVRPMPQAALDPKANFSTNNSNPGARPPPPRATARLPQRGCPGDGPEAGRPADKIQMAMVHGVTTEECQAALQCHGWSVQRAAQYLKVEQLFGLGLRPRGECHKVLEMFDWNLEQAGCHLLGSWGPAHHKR
Description: as §1, §2, §3, §4

[4] = test system: ABL or ARG; assay: Probe-based (AX9989) kinase profiling in Jurkat lysate: ABL or ARG; details: for Kinase inhibition % at indicated screening concentration: ABL or ARG: screening concentration 1.0 μM
Description: as §1, §2, §3, §4

[5] = molecular target: T3, AurA (Homo sapiens, UniProt O14965); assay: Probe-based (AX9989) kinase profiling in Jurkat lysate: AurA
T3 construct: screened for activity against several kinases in Jurkat cells; endogenous in cells; host or cells: Jurkat cell lysate
T3 sequence (O14965 1-403): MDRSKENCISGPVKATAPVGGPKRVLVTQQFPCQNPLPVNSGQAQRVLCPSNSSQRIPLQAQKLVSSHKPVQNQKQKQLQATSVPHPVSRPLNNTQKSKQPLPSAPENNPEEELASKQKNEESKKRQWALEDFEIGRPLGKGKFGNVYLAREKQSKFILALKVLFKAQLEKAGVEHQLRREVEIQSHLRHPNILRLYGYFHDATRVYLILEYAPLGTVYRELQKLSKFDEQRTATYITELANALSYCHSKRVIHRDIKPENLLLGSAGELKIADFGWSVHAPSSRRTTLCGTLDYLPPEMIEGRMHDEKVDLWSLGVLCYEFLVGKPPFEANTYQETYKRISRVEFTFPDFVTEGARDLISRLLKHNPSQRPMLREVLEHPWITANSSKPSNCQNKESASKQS
Description: as §1, §2, §3, §4

[6] = test system: AurB or AurC; assay: Probe-based (AX9989) kinase profiling in Jurkat lysate: AurB or AurC; details: for Kinase inhibition % at indicated screening concentration: AurB or AurC: screening concentration 1.0 μM
Description: as §1, §2, §3, §4

[7] = molecular target: T4, TAO2 (Homo sapiens, UniProt Q9UL54); assay: Probe-based (AX9989) kinase profiling in Jurkat lysate: TAO2
T4 construct: screened for activity against several kinases in Jurkat cells; endogenous in cells; host or cells: Jurkat cell lysate
T4 sequence (Q9UL54 1-1235): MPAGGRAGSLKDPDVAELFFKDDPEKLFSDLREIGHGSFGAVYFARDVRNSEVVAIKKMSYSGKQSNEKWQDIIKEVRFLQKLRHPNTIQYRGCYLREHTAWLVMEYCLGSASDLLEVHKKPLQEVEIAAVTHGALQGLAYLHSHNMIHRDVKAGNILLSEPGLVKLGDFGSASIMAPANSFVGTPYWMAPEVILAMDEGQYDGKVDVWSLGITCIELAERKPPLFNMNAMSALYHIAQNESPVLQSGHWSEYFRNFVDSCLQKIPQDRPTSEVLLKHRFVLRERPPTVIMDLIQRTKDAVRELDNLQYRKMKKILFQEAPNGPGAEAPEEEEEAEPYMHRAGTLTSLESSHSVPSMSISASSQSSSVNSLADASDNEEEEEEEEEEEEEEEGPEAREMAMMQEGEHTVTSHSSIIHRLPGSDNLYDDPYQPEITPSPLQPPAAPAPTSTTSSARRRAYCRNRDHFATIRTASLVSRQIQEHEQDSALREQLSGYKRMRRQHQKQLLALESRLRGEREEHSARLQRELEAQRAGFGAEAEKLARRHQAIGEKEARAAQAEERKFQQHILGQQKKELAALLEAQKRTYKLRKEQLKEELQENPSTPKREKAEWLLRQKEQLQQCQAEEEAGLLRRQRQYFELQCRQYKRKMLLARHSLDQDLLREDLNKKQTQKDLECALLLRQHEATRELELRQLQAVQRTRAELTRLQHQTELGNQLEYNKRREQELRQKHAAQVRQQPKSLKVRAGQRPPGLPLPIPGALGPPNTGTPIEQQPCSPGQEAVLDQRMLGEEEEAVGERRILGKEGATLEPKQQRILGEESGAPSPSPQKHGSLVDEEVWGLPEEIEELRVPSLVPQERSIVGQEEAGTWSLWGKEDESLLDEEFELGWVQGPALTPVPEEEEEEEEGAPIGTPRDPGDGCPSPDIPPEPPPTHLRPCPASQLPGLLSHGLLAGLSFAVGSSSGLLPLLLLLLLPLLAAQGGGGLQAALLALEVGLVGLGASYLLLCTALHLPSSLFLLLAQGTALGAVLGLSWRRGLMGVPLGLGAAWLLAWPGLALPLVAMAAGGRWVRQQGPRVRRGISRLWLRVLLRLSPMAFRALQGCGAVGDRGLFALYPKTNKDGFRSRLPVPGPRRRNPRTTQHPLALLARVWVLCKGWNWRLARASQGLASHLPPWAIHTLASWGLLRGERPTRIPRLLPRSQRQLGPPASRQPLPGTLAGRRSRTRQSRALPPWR
Description: as §1, §2, §3, §4

[8] = molecular target: T5, JAK1 (Homo sapiens, UniProt P23458); assay: Probe-based (AX9989) kinase profiling in Jurkat lysate: JAK1
T5 construct: screened for activity against several kinases in Jurkat cells; endogenous in cells; host or cells: Jurkat cell lysate
T5 sequence (P23458 whole entry): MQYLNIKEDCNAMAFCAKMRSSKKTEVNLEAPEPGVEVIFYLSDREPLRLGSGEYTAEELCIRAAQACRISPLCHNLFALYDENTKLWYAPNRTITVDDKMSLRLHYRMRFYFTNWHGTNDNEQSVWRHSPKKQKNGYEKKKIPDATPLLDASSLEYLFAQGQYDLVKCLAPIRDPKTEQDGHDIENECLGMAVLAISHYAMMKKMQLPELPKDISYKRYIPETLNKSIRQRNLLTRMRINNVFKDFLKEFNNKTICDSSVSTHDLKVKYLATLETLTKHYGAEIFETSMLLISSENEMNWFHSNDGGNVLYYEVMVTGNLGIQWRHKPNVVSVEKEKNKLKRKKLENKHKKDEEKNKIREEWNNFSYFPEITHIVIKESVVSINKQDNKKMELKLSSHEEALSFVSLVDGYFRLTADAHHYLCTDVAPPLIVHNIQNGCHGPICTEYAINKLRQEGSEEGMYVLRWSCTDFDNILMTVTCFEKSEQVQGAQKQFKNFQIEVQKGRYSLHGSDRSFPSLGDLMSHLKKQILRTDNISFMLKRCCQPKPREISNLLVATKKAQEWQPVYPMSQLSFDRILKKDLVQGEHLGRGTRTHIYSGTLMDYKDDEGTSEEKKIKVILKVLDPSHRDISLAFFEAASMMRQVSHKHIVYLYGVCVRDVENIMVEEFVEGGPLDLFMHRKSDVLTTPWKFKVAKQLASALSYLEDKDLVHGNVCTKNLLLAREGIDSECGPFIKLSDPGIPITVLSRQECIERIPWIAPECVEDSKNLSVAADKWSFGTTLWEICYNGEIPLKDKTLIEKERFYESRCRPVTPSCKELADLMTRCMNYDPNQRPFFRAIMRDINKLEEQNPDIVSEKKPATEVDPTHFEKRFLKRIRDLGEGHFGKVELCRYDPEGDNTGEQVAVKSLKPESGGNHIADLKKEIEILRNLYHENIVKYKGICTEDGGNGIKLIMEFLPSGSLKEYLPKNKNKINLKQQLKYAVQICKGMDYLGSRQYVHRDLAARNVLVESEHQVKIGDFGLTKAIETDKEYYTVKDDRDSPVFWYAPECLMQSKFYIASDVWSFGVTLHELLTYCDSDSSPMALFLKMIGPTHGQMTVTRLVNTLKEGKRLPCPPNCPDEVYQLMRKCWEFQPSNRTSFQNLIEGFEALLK
Description: as §1, §2, §3, §4

[9] = calculated from percent inhibition of AX9989 labeling and the screening concentration
[10] = screening concentration 1.0 μM, read-out: Kinase inhibition % at indicated screening concentration: ERK5
[11] = screening concentration 1.0 μM, read-out: Kinase inhibition % at indicated screening concentration: ACK
[12] = screening concentration 1.0 μM, read-out: Kinase inhibition % at indicated screening concentration: AurA
[13] = screening concentration 1.0 μM, read-out: Kinase inhibition % at indicated screening concentration: TAO2
[14] = screening concentration 1.0 μM, read-out: Kinase inhibition % at indicated screening concentration: JAK1

With CCOc1cc(C(=O)N2CCOCC2)ccc1Nc1cc2c(cn1)N(C)C(=O)c1ccccc1S2 [Compound T82, 3-((2-ethoxy-4-(morpholine-4-carbonyl)phenyl)amino)-11-methylbenzo[f]pyrido[4,3-b][1,4]thiazepin-10(11H)-one] the IC50 ([1]; calculated from percent inhibition and screening concentration, AX9989 probe) was 101 to 500 nM, the inhibition at 1 µM ([1]; screening concentration 1 μM, read-out: ERK5 Inhibition % at indicated screening concentration) was 50 to 75% and the “AMPKa1 or AMPKa2 Inhibition % at indicated screening concentration” value ([2]; screening concentration 1 μM) was “E (E is ≦35%)”. The inhibition at 1 µM ([3]; screening concentration 1 μM, read-out: ACK Inhibition % at indicated screening concentration) was at most 35%, the “ABL or ARG Inhibition % at indicated screening concentration” value ([4]; screening concentration 1 μM) was “E (E is ≦35%)” and the inhibition at 1 µM ([5]; screening concentration 1 μM, read-out: AurA Inhibition % at indicated screening concentration) was at most 35%. The “AurB or AurC Inhibition % at indicated screening concentration” value ([6]; screening concentration 1 μM) was “E (E is ≦35%)”, the inhibition at 1 µM ([7]; screening concentration 1 μM, read-out: TAO2 Inhibition % at indicated screening concentration) was at most 35% and the inhibition at 1 µM ([8]; screening concentration 1 μM, read-out: JAK1 Inhibition % at indicated screening concentration) was at most 35%.
COc1ccc(C(=O)O)cc1Nc1cc2c(cn1)N(C)C(=O)c1ccccc1N2C [Compound 36] was tested, and the IC50 [1, 9] was over 500 nM, the inhibition at 1 µM [1, 10] was 35 to 50% and the “Kinase inhibition % at indicated screening concentration: AMPKa1 or AMPKa2” value (“Kinase inhibition % … AMPKa1 or AMPKa2” below) [2] was “E (E is ≦35%)”. For the same compound, the inhibition at 1 µM [3, 11] was at most 35%, the “Kinase inhibition % at indicated screening concentration: ABL or ARG” value (“Kinase inhibition % … ABL or ARG” for short) [4] was “E (E is ≦35%)” and the inhibition at 1 µM [5, 12] was at most 35%. The “Kinase inhibition % at indicated screening concentration: AurB or AurC” value (“Kinase inhibition % … AurB or AurC” below) [6] was “E (E is ≦35%)”, the inhibition at 1 µM [7, 13] was at most 35% and the inhibition at 1 µM [8, 14] was at most 35%.
In the case of CN1C(=O)C2CCCCC2N(C)c2cc(NC3CCC(O)CC3)ncc21 (stereo not drawn) [Compound 76], the IC50 [1, 9] is reported as over 500 nM, the inhibition at 1 µM [1, 10] is reported as at most 35% and the “Kinase inhibition % … AMPKa1 or AMPKa2” value [2] is reported as “E (E is ≦35%)”. The inhibition at 1 µM [3, 11] was at most 35%, the “Kinase inhibition % … ABL or ARG” value [4] was “E (E is ≦35%)” and the inhibition at 1 µM [5, 12] was at most 35%. The “Kinase inhibition % … AurB or AurC” value [6] was “E (E is ≦35%)”, the inhibition at 1 µM [7, 13] was at most 35% and the inhibition at 1 µM [8, 14] was at most 35%.
CCOc1cc(C(=O)O)ccc1Nc1cc2c(cn1)N(C)C(=O)c1ccccc1N2C [Compound 18, 4-(5,11-Dimethyl-10-oxo-10,11-dihydro-5H-benzo[e]pyrido[3,4-b][1,4]diazepin-3-ylamino)-3-ethoxybenzoic acid] was tested, and the IC50 [1, 9] was over 500 nM, the inhibition at 1 µM [1, 10] was 50 to 75% and the “Kinase inhibition % … AMPKa1 or AMPKa2” value [2] was “E (E is ≦35%)”. For the same compound, the inhibition at 1 µM [3, 11] was at most 35%, the “Kinase inhibition % … ABL or ARG” value [4] was “E (E is ≦35%)” and the inhibition at 1 µM [5, 12] was at most 35%. For the same compound, the “Kinase inhibition % … AurB or AurC” value [6] was “E (E is ≦35%)”, the inhibition at 1 µM [7, 13] was at most 35% and the inhibition at 1 µM [8, 14] was at most 35%.
For COc1ccc(C(=O)N2CCNCC2)cc1Nc1cc2c(cn1)N(C)C(=O)c1ccccc1N2C [Compound 87], the IC50 [1, 9] was 101 to 500 nM, the inhibition at 1 µM [1, 10] was 50 to 75% and the “Kinase inhibition % … AMPKa1 or AMPKa2” value [2] was “E (E is ≦35%)”. The inhibition at 1 µM [3, 11] was at most 35%, the “Kinase inhibition % … ABL or ARG” value [4] was “E (E is ≦35%)” and the inhibition at 1 µM [5, 12] was at most 35%. For the same compound, the “Kinase inhibition % … AurB or AurC” value [6] was “E (E is ≦35%)”, the inhibition at 1 µM [7, 13] was at most 35% and the inhibition at 1 µM [8, 14] was at most 35%.
